Laboratory results published in US20060276393A1, “Novel compositions for preventing and treating neurodegenerative and blood coagulation disorders” (Sirtris Pharmaceuticals, Inc., priority 2005, published 2006).

What was measured:
[1] = system: thoracic spinal cord of EAE SJL/J mice; test: EAE spinal cord white matter damage; format: in vivo, mouse
Text: At day 40 post-immunization, mice from each group are sacrificed with an overdose of ketamine/xylazine. Spinal cords are dissected, fixed in 10% buffered formalin, and embedded in paraffin. Five micron thick sections are stained with Hematoxylin and Eosin (H&E) and Luxol Fast Blue (LFB) to assess myelin loss. Bielshowesky's silver impregnation is used to evaluate axonal integrity. To asses the amount of axonal loss, paraffin sections are exposed to monoclonal antibodies against mouse non-phosphorylated neurofilament H (Clone SMI-32, Stemberger Monoclonals, Baltimore, USA) and monoclonal antibodies against APP (Clone 22C11, Chemicon). SMI-32 is detected with a Cy3-labeled antibody and visualized by fluorescence microscopy. Anti-APP antibodies are detected by incubation with ColonoPAP, and APP-positive axons are visualized with 3,3′-diaminobenzidine (DAB).
The percentage of the spinal cord showing damage was determined in the cervical, thoracic and lumbar cord. At each level, regions in the 1) dorsal columns and 2) the lateral and ventral white matter tracts containing damaged fibers was circumscribed on photomontages (final magnification ×100) of the entire spinal cord. Damaged areas in each of the two regions were measured using a SummaSketch III (Summagraphics, Seymour, Conn.) digitizing tablet and BIOQUANT Classic 95 software (R&M Biometrics, Nashville, Tenn.). Measurements were also be made of the total area (damaged and nondamaged) of the 1) dorsal columns and 2) the lateral and ventral columns. For each section (one section per animal), the cumulative percent lesion areas were calculated for each region (dorsal column, lateral and ventral columns).

Human recombinant SIRT2 = molecular target: T1, Human recombinant SIRT2 (Homo sapiens, UniProt Q8IXJ6); test: SIRT2 deacetylation assay; format: biochemical; settings: increasing resveratrol; 25 μM Fluor de Lys-SIRT2, 25 μM NAD+, 20 min 37° C.
T1 sequence (Q8IXJ6 1-389): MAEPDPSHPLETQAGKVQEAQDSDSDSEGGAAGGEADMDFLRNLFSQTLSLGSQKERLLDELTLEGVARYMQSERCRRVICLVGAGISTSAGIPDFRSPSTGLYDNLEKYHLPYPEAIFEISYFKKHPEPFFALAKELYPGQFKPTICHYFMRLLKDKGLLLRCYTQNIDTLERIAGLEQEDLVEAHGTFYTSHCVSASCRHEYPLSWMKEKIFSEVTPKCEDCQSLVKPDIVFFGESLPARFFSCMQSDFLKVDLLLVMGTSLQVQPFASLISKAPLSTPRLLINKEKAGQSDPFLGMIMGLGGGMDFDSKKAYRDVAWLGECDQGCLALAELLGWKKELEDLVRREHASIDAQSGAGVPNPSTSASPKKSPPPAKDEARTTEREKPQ
Text: Yeast Sir2 and human SIRT1 are very homologous and differ from human SIRT2 by the addition of an N-terminal domain that is absent in SIRT2. […] Thus, based on the difference in structure of SIRT1 and SIRT2, i.e., the absence of an N-terminal domain (see FIG. 8), it is believed that the N-terminal domain of SIRT1 and Sir2 is necessary for activation by the compounds described herein. In particular, it is likely that the activator compounds described herein interact with the N-terminal portion of sirtuins. The N-terminal portion of SIRT1 that is necessary for the action of the compounds is from about amino acid 1 to about amino acid 176, and that of Sir2 is from about amino acid 1 to about amino acid 175.

Oc1ccc(/C=C/c2cc(O)cc(O)c2)cc1 [Resveratrol, 3,5,4′-Trihydroxy-trans-stilbene]
degree of damage in dorsal, lateral and ventral white matter ([1]; resveratrol 200 mg/kg): slightly increased, albeit not significantly
reduction of degree of damage in dorsal, lateral and ventral white matter ([1]; resveratrol 400 mg/kg, significant): approximately 40%
SIRT2 activity (Human recombinant SIRT2): decrease SIRT2 activity
